Source: paper PMC10385282, “Luteolin Protects Pancreatic β Cells against Apoptosis through Regulation of Autophagy and ROS Clearance” (Pharmaceuticals, 2023)

Biological target: T1, Drak2 (death-associated protein kinase-related apoptosis-inducing kinase-2) (Homo sapiens, UniProt O94768)
T1 construct: gene STK17B
T1 sequence (O94768 1-372): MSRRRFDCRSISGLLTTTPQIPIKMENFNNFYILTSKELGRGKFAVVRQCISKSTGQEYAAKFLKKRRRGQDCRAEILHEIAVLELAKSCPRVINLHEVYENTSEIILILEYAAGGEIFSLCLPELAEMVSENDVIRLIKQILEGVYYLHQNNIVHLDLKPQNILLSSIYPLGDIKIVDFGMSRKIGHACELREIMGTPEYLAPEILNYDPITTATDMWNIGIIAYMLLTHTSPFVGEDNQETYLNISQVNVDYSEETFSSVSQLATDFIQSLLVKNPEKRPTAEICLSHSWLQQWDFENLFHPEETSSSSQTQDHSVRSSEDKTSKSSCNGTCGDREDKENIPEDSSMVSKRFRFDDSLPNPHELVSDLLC
Assay: biochemical
Design: ADP-Glo kinase assay, luminescence, residual Drak2 activity at 20 uM compound
Details: read-out: % of control remaining
Procedure: ADP-Glo kits (Promega, Madison, WI; #V6903) were used for Drak2 inhibitor screening. Drak2 activity was measured and calculated from the amount of ADP generated from the enzyme reaction. The compounds were dissolved in DMSO and diluted to the indicated concentration for the screening assay. Drak2 and substrate ATP were diluted in 1X Buffer (HEPES 50 mM (pH 7.0), NaN3 0.02%, Orthovanadate 0.1 mM, 5 mM MgCl2, 0.01% (w/v) bovine serum albumin). The 5 µL kinase reaction was performed using 1X kinase buffer that contained 1 μL of compound, 2 μL of Drak2 (160 nM) and 2 μL of substrate ATP (20 μM), and incubated for 2 h at room temperature. Then, 2.5 μL of ADP-Glo™ Reagent was added to each reaction and incubated for 2 h at room temperature to deplete the remaining ATP. Finally, 5 μL of Kinase Detection Reagent was added to each reaction to convert ADP to ATP via the luciferase reaction, which was detected using an EnVision multilabel plate reader. 22b was used as a positive control in the assay. Our previous work validated that Drak2 inhibitors can prevent pancreatic β cells from undergoing lipotoxicity-induced cell apoptosis. Therefore, we established a kinase activity detection assay in vitro using the ADP-Glo^TM Kinase Assay kit (Promega, Madison, WI, USA) and screened the Natural Product and Derivatives Focus Library to identify small molecules that can inhibit Drak2 activity. […]

Work on `O=c1cc(-c2ccc(O)c(O)c2)oc2cc(O)cc(O)c12` [luteolin] yielded a remaining activity at 20 µM of 7.74 ± 1.75%.
